Assay results: patent publication US8642540B2 (Zealand Pharma A/S, priority 2008, dated 2014)
Where two headings read alike, the source gives them in different places. Non-standard residues stand in square brackets, D forms with d. Residues, ends and D or L forms follow the SMILES beside them.

Legend:
human GLP-1-R = target: T1, human GLP-1-R (Homo sapiens, UniProt P43220); experiment: GLP-1 receptor efficacy assay (cAMP in HEK293 cells); format: cell-based; settings: HEK293 cells expressing human GLP-1-R, 15 min at 37° C.
T1 construct: expressed in transfected cells
Description: (§1) The 5′-end primers additionally encoded a near Kozak consensus sequence to ensure efficient translation.
(§2) 48 hr after transfection cells were seeded for limited dilution cloning and selected with 1 mg/ml G418 in the culture medium.
(§3) On the day of analysis, growth medium was removed and the cells washed once with 200 μl Tyrode buffer. Cells were incubated in 100 μl Tyrode buffer containing increasing concentrations of test peptides, 100 μM IBMX, and 6 mM glucose for 15 min at 37° C. The reaction was stopped by addition of 25 μl 0.5 M HCl and incubated on ice for 60 min. The cAMP content was estimated using the FlashPlate® cAMP kit from Perkin-Elmer.

[1] = tested on: primary rat adipocyte cultures; format: cell-based; settings: for Stimulation of lipolysis EC50 / lipolysis potency relative to OXM: primary rat adipocyte cultures; for Stimulation of lipolysis EC50: 60 min at 37° C., glycerol formed
Description: Adipocytes were isolated from epididymal fat dissected from normal young adult Sprague-Dawley rats. The fat lumps were minced, incubated and shaken (220 rpm) with collagenase (1 mg/ml) in Krebs-Ringer buffer containing 4% BSA (KRB-BSA) for 60 minutes at 37° C. The suspension was filtered through a nylon filter (160 μm pore size) and the filtrate centrifuged at 200×g for 3 min. The subjacent medium beneath the upper floating layer of adipocytes was removed with a Pasteur-pipette. The adipocytes were washed 3 times in KRB-BSA buffer by re-suspension and centrifugation. The adipocytes were re-suspended in KRB-BSA, mixed, incubated in and shaken with test compounds in 96-deep well plates (50,000 cells/well) in a total volume of 1 ml at 37° C. for 60 min. The plates were placed on ice for at least 10 min after incubation followed by centrifugation at 200×g for 3 min. 300 μl of the buffer beneath the adipocyte layer were collected in a 96-deep well plate. This process was repeated two more times and the 3 extracts collected from each culture pooled together.

human Glucagon-R = target: T2, human Glucagon-R (Homo sapiens, UniProt P47871); experiment: Glucagon receptor efficacy assay (cAMP in HEK293 cells); format: cell-based; settings: HEK293 cells expressing human Glucagon-R, 15 min at 37° C., read-out: GLUR EC50
T2 construct: expressed in transfected cells
Description: as §1, §2, §3

diet induced obese mice = experiment: 28 day treatment of diet induced obese (DIO) mice, body weight gain; format: in vivo, mouse; settings: C57Bl/6 male mice on high fat diet, 500 nmol/kg b.i.d. s.c., 28 days
Description: Effects of 28 Day Treatment of Diet Induced Obese (DIO) Mice with ZP2495 (SEQ ID NO: 5) on Body Weight Gain Four weeks before drug treatments, C57Bl/6 male mice (7 weeks) (N=10-12 animals in each group) were put on high fat diet (HFD) and their day-night cycle reversed with lights On/Off at 2000/0800 hour. Experimental animals were conditioned to treatment by daily injections (s.c.) of 0.1 ml vehicle and acclimatized to handling by weighing them twice a week one week before start of drug administrations. The day before start of experiment, mice were stratified into groups with similar body weight (BW) and the next day groups of stratified mice were treated (b.i.d.; s.c.) with ZP2495 (SEQ ID NO: 5) (500 nmol/kg) or vehicle. A non-obese control group maintained on regular chow was treated with vehicle in the same treatment regime as the DIO groups. Body weights were recorded daily and used to administer the body weight-corrected doses of peptide throughout the study. Animals were fasted overnight before sacrifice. […] Body weight gains throughout the treatment period were calculated for each animal by subtracting its weight at the initiation of treatment.
The effects of treatment on body weight gain were assessed by 2-way ANOVA with repeated measures and Bonferoni post-hoc analyses were using with GraphPad Prism version 4. […]

T1 sequence (P43220 24-463): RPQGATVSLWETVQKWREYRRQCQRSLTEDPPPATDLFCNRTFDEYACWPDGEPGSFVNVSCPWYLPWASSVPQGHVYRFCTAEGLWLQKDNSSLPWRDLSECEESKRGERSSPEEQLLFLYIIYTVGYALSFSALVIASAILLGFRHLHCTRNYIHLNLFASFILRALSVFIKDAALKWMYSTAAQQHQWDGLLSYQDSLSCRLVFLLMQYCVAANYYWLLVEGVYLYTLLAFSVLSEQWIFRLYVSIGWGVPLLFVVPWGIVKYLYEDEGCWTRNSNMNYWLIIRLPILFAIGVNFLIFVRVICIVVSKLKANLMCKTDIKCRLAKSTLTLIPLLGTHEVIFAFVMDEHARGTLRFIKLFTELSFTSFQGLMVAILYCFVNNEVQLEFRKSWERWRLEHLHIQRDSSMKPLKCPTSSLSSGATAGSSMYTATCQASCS
T2 sequence (P47871 26-477): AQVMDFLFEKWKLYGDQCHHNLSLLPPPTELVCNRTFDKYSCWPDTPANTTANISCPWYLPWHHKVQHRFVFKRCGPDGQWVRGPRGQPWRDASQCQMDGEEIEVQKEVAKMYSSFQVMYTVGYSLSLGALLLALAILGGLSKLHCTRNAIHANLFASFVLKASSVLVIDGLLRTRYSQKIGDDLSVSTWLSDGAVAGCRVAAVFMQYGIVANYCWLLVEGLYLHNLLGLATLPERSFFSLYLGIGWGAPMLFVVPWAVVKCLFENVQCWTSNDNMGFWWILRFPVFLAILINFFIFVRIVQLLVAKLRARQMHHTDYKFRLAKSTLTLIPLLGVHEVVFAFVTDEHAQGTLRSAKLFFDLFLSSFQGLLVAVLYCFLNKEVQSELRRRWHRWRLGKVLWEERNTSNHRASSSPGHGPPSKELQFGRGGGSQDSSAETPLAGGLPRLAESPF

EC50 (human GLP-1-R) | EC50 [1] | EC50 (human Glucagon-R) | Compound | Stimulation of lipolysis EC50 [1] | Stimulation of lipolysis EC50 ([1]; listed as exendin-4) | lipolysis potency relative to OXM [1] | body weight gain versus vehicle group (diet induced obese mice; 2-way ANOVA, p<0.05) | body weight gain (diet induced obese mice; compared with chow-fed controls)
0.8 nM | 326 nM | 0.5 nM | CC(C)C[C@H](NC(=O)[C@H](Cc1c[nH]c2ccccc12)NC(=O)[C@H](C)NC(=O)[C@@H](NC(=O)[C@H](Cc1ccccc1)NC(=O)[C@H](CC(=O)O)NC(=O)[C@H](CC(=O)O)NC(=O)[C@H](C)NC(=O)[C@H](CCCNC(=N)N)NC(=O)[C@H](C)NC(=O)[C@H](CCCNC(=N)N)NC(=O)[C@H](CC(=O)O)NC(=O)[C@H](CC(C)C)NC(=O)[C@H](Cc1ccc(O)cc1)NC(=O)[C@H](CCCCN)NC(=O)[C@H](CO)NC(=O)[C@H](Cc1ccc(O)cc1)NC(=O)[C@H](CC(=O)O)NC(=O)[C@H](CO)NC(=O)[C@@H](NC(=O)[C@H](Cc1ccccc1)NC(=O)[C@@H](NC(=O)CNC(=O)[C@H](CCC(N)=O)NC(=O)[C@@H](CO)NC(=O)[C@@H](N)Cc1c[nH]cn1)[C@@H](C)O)[C@@H](C)O)C(C)C)C(=O)N[C@@H](CCCCN)C(=O)N[C@@H](CO)C(=O)N[C@H](C(N)=O)[C@@H](C)O [ZP2654] (H-H[dS]QGTFTSDYSKYLDRARADDFVAWLKST-NH2) | – | – | – | – | –
– | – | – | Exendin-4 [reference compound] | No effect | no effect | – | – | –
0.8 nM | 15 nM | – | H-HSQGTFTSDYSKYLDRARADDFVAWLERA-NH2 [ZP2650] | – | – | – | – | –
0.2 nM | 93 nM | 0.2 nM | H-HSQGTFTSDYSKYLDRARADDFVAWLKEA-NH2 [ZP2635] | – | – | – | – | –
0.2 nM | 127 nM | 0.5 nM | H-HSQGTFTSDYSKYLDRARADDFVAWLKSA-NH2 [ZP2634] | – | – | equipotent with OXM | – | –
– | 137 nM | – | H-HSQGTFTSDYSKYLDRARADDFVAWLKST-NH2 [ZP2495] | – | – | equipotent with OXM | statistically significantly less than observed in the vehicle group | decreased body weight gain to a level similar to that observed with chow feeding
0.1 nM | 57 nM | – | H-HSQGTFTSDYSKYLDRARADDFVEWLKST-NH2 [ZP2649] | – | – | – | – | –
0.1 nM | 42 nM | 0.2 nM | H-HSQGTFTSDYSKYLDRARAEDFVAWLKST-NH2 [ZP2637] | – | – | – | – | –
0.1 nM | 26 nM | 0.2 nM | H-HSQGTFTSDYSKYLDRARAHDFVAWLKST-NH2 [ZP2648] | – | – | – | – | –
